According to PMC2754045 (Biochemistry, 2009):

Tests used:
mTR-GCCG [1] = settings: for Activity lower than that of the wild type enzyme: Sec to Cys mutant versus WT, pH 7.0
mTR-GCCG [2] = format: biochemical, mouse; settings: mTR-GCCG versus mTR-GCUG

Structure (SMILES)	IC50 increase on mutation of Sec to Cys (mTR-GCCG [2]) [fold]	Activity lower than that of the wild type enzyme (mTR-GCCG [1])	further results
O=C(O)CCCC[C@@H]1CCSS1 [Lipoic Acid, lipoic acid]			Km increase in the Cys2 mutant (mTR-GCCG [1]; versus full-length WT enzyme): 2.3 fold
OC[C@H]1O[C@H]([S-])[C@H](O)[C@@H](O)[C@@H]1O.[Au+] [aurothioglucose]	1.7		
N[C@@H](C[Se][Se]C[C@H](N)C(=O)O)C(=O)O [selenocystine]		3.7 fold	
CC(=O)OC[C@H]1O[C@@H]([S-])[C@H](OC(C)=O)[C@@H](OC(C)=O)[C@@H]1OC(C)=O.CCP(CC)CC.[Au+] [auranofin]	4		
O=[Se]([O-])[O-].[Na+].[Na+] [selenite, sodium selenite]		~ 2 fold	
